From paper PMC11406516, “The Tuberculosis Drug Candidate SQ109 and Its Analogs Have Multistage Activity against Plasmodium falciparum” (ACS Infectious Diseases, 2024)
Converted amounts (≈) assume the structure as drawn. Marks after values point to notes of the source that are not given here.

System: PfK1
Test: SYBR Green I proliferation assay, asexual blood stages, multidrug-resistant K1
Conditions: Plasmodium falciparum, K1, read-out: Pf ABS IC50 K1
Description: (§1) P. falciparum asexual parasites were cultured from drug-sensitive NF54 (PfNF54) and multidrug resistant strains PfK1. Parasites were maintained in human erythrocytes (O+, suspended at 5% hematocrit) in RPMI-1640 culture medium (23.81 mM sodium bicarbonate, 0.024 mg/mL gentamycin, 25 mM HEPES pH 7.5, 0.2% D-glucose, 0.2 mM hypoxanthine and Albumax II) under hypoxic conditions (5% CO2, 5% O2 and 90% N2) with moderate shaking (60 rpm) at 37 °C. Cultures were synchronized to >95% in the ring stage with 5% (w/v) D-sorbitol treatment.[28]
(§2) Activity against the asexual stage of P. falciparum was evaluated using the SYBR Green I-based fluorescence assay as previously described.[4],[16] Cellular proliferation was measured on synchronized in vitro PfNF54 ring-stage parasites (1% parasitemia, 2% hematocrit), following drug pressure for 96 h. Chloroquine was used as the positive drug control for complete inhibition of parasite proliferation.

SMILES	IC50
CCC1(NCCNC/C=C(\C)CCC=C(C)C)C2CC3CC(C2)CC1C3 (stereo not drawn) [Compound 2]	100 ± 20 nM
CCCCC1(NCCNC/C=C(\C)CCC=C(C)C)C2CC3CC(C2)CC1C3 (stereo not drawn) [Compound 3]	130 ± 30 nM
CCCC1(NCCNC/C=C(\C)CCC=C(C)C)C2CC3CC(C2)CC1C3 (stereo not drawn) [Compound 6]	1330 ± 500 nM
CC(C)=CCC/C(C)=C/CNCCNC1(C)C2CC3CC(C2)CC1C3 (stereo not drawn) [Compound 7]	860 ± 270 nM
CC(C)=CCC/C(C)=C/CNCCNC(C)(C)C1C2CC3CC(C2)CC1C3 (stereo not drawn) [Compound 8]	1610 ± 550 nM

System: PfNF54 ABS
Test: not given
Design: method as in Stampolaki et al.[5]
Conditions: drug-sensitive NF54; ref Stampolaki et al.[5]; read-out: Pf ABS IC50 NF54; cited from earlier work

SMILES	IC50
CCC1(NCCNC/C=C(\C)CCC=C(C)C)C2CC3CC(C2)CC1C3 (stereo not drawn) [Compound 2]	160 ± 70 nM
CCCCC1(NCCNC/C=C(\C)CCC=C(C)C)C2CC3CC(C2)CC1C3 (stereo not drawn) [Compound 3]	270 ± 40 nM
CC(C)=CCC/C(C)=C/CNCCNC1(C)C2CC3CC(C2)CC1C3 (stereo not drawn) [Compound 7]	660 ± 160 nM
CC(C)=CCC/C(C)=C/CNCCNC(C)(C)C1C2CC3CC(C2)CC1C3 (stereo not drawn) [Compound 8]	770 ± 100 nM

System: male gametes (PfNF54)
Test: Male gamete exflagellation inhibition assay (EIA)
Format: cell-based
Conditions: Plasmodium falciparum; 2 μM, 48 h; read-out: male gamete inhibition %
Description: The EIA was performed using video microscopy by capturing the movement of exflagellation centers over time as previously described.[4],[30] Mature PfNF54 stage V gametocytes (>95%;) were treated with 2 μM of drug for 48 h before the activation of exflagellation, without removing drug pressure. Movement was semi-automatically quantified from 15 videos of 8–10 s each between 15 and 22.5 min after incubation. Each video was analyzed using ICY-bio image analysis software.

SMILES	inhibition at 2 µM
CCC1(NCCNC/C=C(\C)CCC=C(C)C)C2CC3CC(C2)CC1C3 (stereo not drawn) [Compound 2]	95.5 ± 4.55%
CCCCC1(NCCNC/C=C(\C)CCC=C(C)C)C2CC3CC(C2)CC1C3 (stereo not drawn) [Compound 3]	81.4 ± 8.64%
CCCC1(NCCNC/C=C(\C)CCC=C(C)C)C2CC3CC(C2)CC1C3 (stereo not drawn) [Compound 6]	34.6 ± 14.3%
CC(C)=CCC/C(C)=C/CNCCNC1(C)C2CC3CC(C2)CC1C3 (stereo not drawn) [Compound 7]	27.1 ± 14%
CC(C)=CCC/C(C)=C/CNCCNC(C)(C)C1C2CC3CC(C2)CC1C3 (stereo not drawn) [Compound 8]	23.5 ± 9.72%

System: not listed separately
Test: in vitro
Format: in vitro ADME
Conditions: human, microsomes
Description: The microsomal stability assay used a single-point assay design (Di et al., 2004). Briefly, the compounds were incubated at 1 μM in human, rat, and mouse liver microsomes (0.4 mg/mL) for 30 min at 37 °C. Reactions were quenched by adding ice-cold acetonitrile containing internal standard (carbamazepine, 0.0236 μg/mL). The samples were then centrifuged, and the samples were analyzed by liquid chromatography with tandem mass spectrometry (LC-MS/MS) (Agilent Rapid Resolution HPLC, AB SCIEX 4500 MS) for the disappearance of the parent compound. Half-life, clearance and hepatic […] ratios were determined using standard equations.

SMILES	microsomal CLint at 1 µM
CCCC1(NCCNC/C=C(\C)CCC=C(C)C)C2CC3CC(C2)CC1C3 (stereo not drawn) [Compound 6]	322 µL/min/mg
CC(C)=CCC/C(C)=C/CNCCNC1(C)C2CC3CC(C2)CC1C3 (stereo not drawn) [Compound 7]	254 µL/min/mg
CC(C)=CCC/C(C)=C/CNCCNC(C)(C)C1C2CC3CC(C2)CC1C3 (stereo not drawn) [Compound 8]	426 µL/min/mg

Same assay, conditions: mouse, microsomes

SMILES	microsomal CLint at 1 µM
CCCC1(NCCNC/C=C(\C)CCC=C(C)C)C2CC3CC(C2)CC1C3 (stereo not drawn) [Compound 6]	308 µL/min/mg
CC(C)=CCC/C(C)=C/CNCCNC1(C)C2CC3CC(C2)CC1C3 (stereo not drawn) [Compound 7]	348 µL/min/mg
CC(C)=CCC/C(C)=C/CNCCNC(C)(C)C1C2CC3CC(C2)CC1C3 (stereo not drawn) [Compound 8]	218 µL/min/mg

Same assay, conditions: rat, microsomes

SMILES	microsomal CLint at 1 µM
CCCC1(NCCNC/C=C(\C)CCC=C(C)C)C2CC3CC(C2)CC1C3 (stereo not drawn) [Compound 6]	400 µL/min/mg
CC(C)=CCC/C(C)=C/CNCCNC1(C)C2CC3CC(C2)CC1C3 (stereo not drawn) [Compound 7]	373 µL/min/mg
CC(C)=CCC/C(C)=C/CNCCNC(C)(C)C1C2CC3CC(C2)CC1C3 (stereo not drawn) [Compound 8]	467 µL/min/mg

System: oocyst formation
Test: Standard membrane feeding assay (SMFA), oocyst formation in Anopheles coluzzii
Format: in vivo
Conditions: Plasmodium falciparum; 48 h drug treatment at 2 μM, single biological repeat; read-out: oocyst formation (% inhibition) TBA
Description: Transmission-blocking activity was confirmed in the standard membrane feeding assay (SMFA), by determining transmission-reducing activity (TRA; reduction in oocyst counts) and transmission-blocking activity (TBA, reduction in oocyst prevalence), 8–10 days after feeding female mosquitoes on gametocyte-infected blood, treated with selected compounds (at 2 μM).
SMFA was performed using glass feeders as is outlined.[4],[16] Once again, mature stage V gametocytes (>95%) were treated with 2 μM of each compound for 48 h prior to feeding. Anopheles coluzzii females were allowed to feed on gametocyte cultures (1.5–2.5% gametocytemia, 50% hematocrit in A+ male serum with fresh erythrocytes) in the dark for 40 min. All unfed or partially fed mosquitoes were removed, and remaining females housed for 8–10 days. Mosquitoes were dissected to remove midguts, and oocysts counted under bright field illumination at ×20–×40 magnification. The percentage of block in transmission (transmission-blocking activity; TBA) and the percentage of reduction in the number of oocysts (transmission-reducing activity; TRA) were calculated after normalizing to the control untreated sample.

SMILES	inhibition at 2 µM
CCCCC1(NCCNC/C=C(\C)CCC=C(C)C)C2CC3CC(C2)CC1C3 (stereo not drawn) [Compound 3]	36%
CCCC1(NCCNC/C=C(\C)CCC=C(C)C)C2CC3CC(C2)CC1C3 (stereo not drawn) [Compound 6]	67%

Same assay, conditions: Plasmodium falciparum; 48 h drug treatment at 2 μM, single biological repeat; read-out: oocyst formation (% inhibition) TRA

SMILES	inhibition at 2 µM
CCCCC1(NCCNC/C=C(\C)CCC=C(C)C)C2CC3CC(C2)CC1C3 (stereo not drawn) [Compound 3]	11%
CCCC1(NCCNC/C=C(\C)CCC=C(C)C)C2CC3CC(C2)CC1C3 (stereo not drawn) [Compound 6]	53%

System: PfNF54 LGc (stage IV/V gametocytes)
Test: PrestoBlue late-stage gametocyte viability assay
Format: cell-based, Plasmodium falciparum
Conditions: Plasmodium falciparum; stage IV/V gametocytes, 48 h drug pressure; read-out: PfNF54 LGc IC50
Description: Gametocytogenesis was induced on highly synchronized (>95%) asexual ring-stage parasites from PfNF54 at 0.5% parasitemia and 6% hematocrit and thereafter maintained in glucose-deprived media as previously described.[29],[15] After 3 days, the hematocrit was decreased to 4%. Parasites were maintained in complete culture media supplemented with 50 mM N-acetyl-glucosamine 5–10 days post induction to inhibit proliferation of residual asexual blood stages. Gametocyte progression and morphology was also monitored microscopically using Giemsa-stained thin smears.
activity against the sexual stages of P. falciparum was evaluated using the PrestoBlue fluorescence assay as previously described.[4] Activity was measured on PfNF54 stage IV/V gametocytes (2% gametocytemia, 5% hematocrit) previously seeded with compounds (in non-lethal DMSO) for 48 h drug pressure, after which PrestoBlue reagent was added and incubated for 2 h. Fluorescence was detected in the supernatant at 612 nm. Dihydroartemisinin (DHA) was used as a positive drug control.

SMILES	IC50
CCC1(NCCNC/C=C(\C)CCC=C(C)C)C2CC3CC(C2)CC1C3 (stereo not drawn) [Compound 2]	580 ± 40 nM
CCCCC1(NCCNC/C=C(\C)CCC=C(C)C)C2CC3CC(C2)CC1C3 (stereo not drawn) [Compound 3]	300 ± 30 nM
CCCC1(NCCNC/C=C(\C)CCC=C(C)C)C2CC3CC(C2)CC1C3 (stereo not drawn) [Compound 6]	370 ± 20 nM
CC(C)=CCC/C(C)=C/CNCCNC1(C)C2CC3CC(C2)CC1C3 (stereo not drawn) [Compound 7]	200 ± 20 nM
CC(C)=CCC/C(C)=C/CNCCNC(C)(C)C1C2CC3CC(C2)CC1C3 (stereo not drawn) [Compound 8]	290 ± 10 nM

System: HepG2 cells
Test: HepG2 cytotoxicity, LDH release assay
Conditions: Homo sapiens, HepG2, 24 h, read-out: HepG2 EC50

SMILES	EC50
CCC1(NCCNC/C=C(\C)CCC=C(C)C)C2CC3CC(C2)CC1C3 (stereo not drawn) [Compound 2]	5.21 ± 1.33 µM
CCCCC1(NCCNC/C=C(\C)CCC=C(C)C)C2CC3CC(C2)CC1C3 (stereo not drawn) [Compound 3]	10.2 ± 1.7 µM

System: HepG2 cells
Test: not given
Design: method as in Stampolaki et al.[5]
Conditions: compound at 20 μM; ref Stampolaki et al.[5]; cited from earlier work

SMILES	HepG2 % viability
CCCC1(NCCNC/C=C(\C)CCC=C(C)C)C2CC3CC(C2)CC1C3 (stereo not drawn) [Compound 6]	100^%c
CC(C)=CCC/C(C)=C/CNCCNC1(C)C2CC3CC(C2)CC1C3 (stereo not drawn) [Compound 7]	100%^c
CC(C)=CCC/C(C)=C/CNCCNC(C)(C)C1C2CC3CC(C2)CC1C3 (stereo not drawn) [Compound 8]	100%^c

System: not listed separately
Test: physchem
Format: physicochemical
Conditions: 37 °C, pH 6.5, aqueous buffer, thermodynamic from solid
Description: The stock solutions (10^–2 M) of the assayed compounds were diluted to decreased molarity, from 300 to 0.1 μM, in 384 well transparent plate (Greiner 781801) with 1% DMSO:99% PBS buffer. Then, they were incubated at 37 °C and the light scattering was measured after 2 h in a NEPHELOstar Plus (BMG LABTECH). The results were adjusted to a segmented regression to obtain the maximum concentration in which compounds are soluble.
The solubility of each product was evaluated using an HPLC Agilent 1100 with a DAD detector. The samples were injected in an Agilent Poroshell 120 EC-C18, 2.7 μm, 50 mm × 4.6 mm column at 40 °C and 0.6 mL/min flow. The mobile phase was a mixture of A = water with 0.05% formic acid and B = acetonitrile with 0.05% formic acid. The procedure followed was from 95% A–5% B to 100% B in 3 min, 100% B in 3 min, from 100% B to 95% A–5% B in 1 min, 95% A–5% B in 3 min; the injection volume was set at 75 μL. […] The samples remained at these conditions between 12–24 h. Then, the samples were filtered through a 0.45 μm PVDF filter and either directly analyzed or diluted before analyzing. The obtained area under the curve was compared with the one from the standard solution.

SMILES	solubility
CCC1(NCCNC/C=C(\C)CCC=C(C)C)C2CC3CC(C2)CC1C3 (stereo not drawn) [Compound 2]	840 µM (≈ 301 µg/mL)
CCCC1(NCCNC/C=C(\C)CCC=C(C)C)C2CC3CC(C2)CC1C3 (stereo not drawn) [Compound 6]	334 µM (≈ 124 µg/mL)
CC(C)=CCC/C(C)=C/CNCCNC1(C)C2CC3CC(C2)CC1C3 (stereo not drawn) [Compound 7]	773 µM (≈ 266 µg/mL)
CC(C)=CCC/C(C)=C/CNCCNC(C)(C)C1C2CC3CC(C2)CC1C3 (stereo not drawn) [Compound 8]	2340 µM (≈ 872 µg/mL)

System: female gametes
Test: Female gamete inhibition assay
Format: cell-based, Plasmodium falciparum
Design: concentration or dose not given beside the values
Conditions: not given
Description: Similarly, female gametes were activated as described previously.[31] Monoclonal anti-Pfs antibody conjugated to FITC was used to detect female gametes. Image acquisition was performed using a Zeiss Axio Lab.A1 epifluorescence microscope with a 100/1.4 numerical aperture (NA) oil immersion. Thirty images were captured per sample and analyzed manually.

SMILES	female gamete inhibition %
CCC1(NCCNC/C=C(\C)CCC=C(C)C)C2CC3CC(C2)CC1C3 (stereo not drawn) [Compound 2]	78.88 ± 4.46%
CCCCC1(NCCNC/C=C(\C)CCC=C(C)C)C2CC3CC(C2)CC1C3 (stereo not drawn) [Compound 3]	67.05 ± 0.39%
CCCC1(NCCNC/C=C(\C)CCC=C(C)C)C2CC3CC(C2)CC1C3 (stereo not drawn) [Compound 6]	64.59 ± 12.33%
CC(C)=CCC/C(C)=C/CNCCNC1(C)C2CC3CC(C2)CC1C3 (stereo not drawn) [Compound 7]	34.05 ± 9.23%
CC(C)=CCC/C(C)=C/CNCCNC(C)(C)C1C2CC3CC(C2)CC1C3 (stereo not drawn) [Compound 8]	54.00 ± 2.54%

System: PfNF54 ABS
Test: SYBR Green I proliferation assay, asexual blood stages, drug-sensitive NF54
Conditions: PfNF54 ABS
Description: as §1, §2

SMILES	fold improvement in ABS activity compared to 1
CCC1(NCCNC/C=C(\C)CCC=C(C)C)C2CC3CC(C2)CC1C3 (stereo not drawn) [Compound 2]	10 fold

Same assay, conditions: Plasmodium falciparum, NF54, 96 h, read-out: Pf ABS IC50 NF54

SMILES	IC50
CCCC1(NCCNC/C=C(\C)CCC=C(C)C)C2CC3CC(C2)CC1C3 (stereo not drawn) [Compound 6]	500 ± 140 nM
